# Results from patent US20230233541A1, “SUBSTITUTED BENZAMIDES AS MODULATORS OF TREX1” (Constellation Pharmaceuticals, Inc., priority 2020, published 2023).
# Columns and labels:
# [1] = molecular target: T1, human TREX2 (residues M44-A279) (Homo sapiens, UniProt Q9BQ50); assay: TREX2 Biochemical Assay (fluorescence assay, degradation of dsDNA substrate); conditions: 2.5 nM TREX2, 60 nM dsDNA substrate, 25 minutes at room temperature; read-out: hTREX2 EC50
# T1 construct: human TREX2 (residues M44-A279, expressed in E. coli); His-Tev (His tag with TEV protease site) (N); made in house; host or cells: E. coli
# T1 sequence (Q9BQ50 44-279 isoform Q9BQ50-1): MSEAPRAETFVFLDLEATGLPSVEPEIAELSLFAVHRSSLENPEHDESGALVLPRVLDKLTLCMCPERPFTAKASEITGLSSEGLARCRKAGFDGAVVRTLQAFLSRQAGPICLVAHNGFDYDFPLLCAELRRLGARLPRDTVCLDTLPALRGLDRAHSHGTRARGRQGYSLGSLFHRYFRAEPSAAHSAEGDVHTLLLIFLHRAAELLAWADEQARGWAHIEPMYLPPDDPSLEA
# Method in brief: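 His-Tev-tagged human TREX2 (M44-A279, E. coli-expressed) at 2.5 nM final, with 60 nM TEX615/quencher-labelled dsDNA in pH 7.4 Tris buffer with MgCl2 and 1.0% DMSO, 10-point dose-response, 25 min at room temperature, then EDTA quench. Fluorescence read at 615 nm (ex 570 nm). IC50 from four-parameter fit against pre-quenched and no-inhibitor controls.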
# full length human TREX1 = molecular target: T2, full length human TREX1 (Homo sapiens, UniProt Q9NSU2); assay: TREX1 Biochemical Assay (fluorescence assay, degradation of dsDNA substrate); conditions: 150 pM TREX1, 60 nM dsDNA substrate, 25 minutes at room temperature; read-out: hTREX1 EC50
# T2 construct: N-terminally His-Tev tagged full length human TREX1; His-Tev (His tag with TEV protease site) (N); made in house; host or cells: E. coli
# T2 sequence (Q9NSU2 1-314): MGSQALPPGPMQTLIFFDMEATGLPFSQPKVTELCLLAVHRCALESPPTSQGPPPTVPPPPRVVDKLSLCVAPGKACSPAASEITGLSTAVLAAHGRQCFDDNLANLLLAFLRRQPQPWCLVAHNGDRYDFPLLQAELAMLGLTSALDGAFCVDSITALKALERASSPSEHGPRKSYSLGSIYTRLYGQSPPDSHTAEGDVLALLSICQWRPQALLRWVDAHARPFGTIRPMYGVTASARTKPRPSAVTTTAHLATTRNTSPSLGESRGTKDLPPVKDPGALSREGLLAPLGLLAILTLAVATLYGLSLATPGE
# Method in brief: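 E. coli-expressed His-Tev-tagged full-length TREX1 (150 pM) with 60 nM quenched-fluorophore dsDNA in Tris pH 7.4, 150 mM NaCl, 100 mM MgCl2, 1% DMSO, 25 min room temperature, 10-point dose-response. EDTA stop; fluorescence 615 nm (ex 570 nm); IC50 from four-parameter fit against pre-quenched and no-inhibitor controls.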
SMILES,EC50 [1] [µM],EC50 (full length human TREX1) [µM]
O=C(O)c1ccc(CN(Cc2ccc3ncccc3c2Cl)C(=O)c2cc(F)cc(F)c2)cn1 [Compound 191],1 to 10,< 0.1
N#Cc1ccccc1CN(Cc1ccc(C(=O)O)nc1)C(=O)c1cc(F)cc(F)c1 [Compound 192],> 100,> 10
Cc1ccccc1CN(Cc1ccc(C(=O)O)nc1)C(=O)c1cc(F)cc(F)c1 [Compound 193],10 to 100,0.1 to 1
COc1cccc(CN(Cc2ccc(C(=O)O)nc2)C(=O)c2cc(F)cc(F)c2)c1C [Compound 195],1 to 10,< 0.1
CC[C@H](c1cccc(OC)c1C(F)(F)F)N(Cc1ccc(C(=O)O)nc1)C(=O)c1cc(F)cc(F)c1 [Compound 196],< 1,< 0.1
CC[C@@H](c1cccc(OC)c1C(F)(F)F)N(Cc1ccc(C(=O)O)nc1)C(=O)c1cc(F)cc(F)c1 [Compound 197],1 to 10,< 0.1
O=C(O)c1ccc(CN(Cc2cccc(Cl)c2C(F)(F)F)C(=O)c2cc(F)cc(F)c2)cn1 [Compound 198],10 to 100,0.1 to 1
O=C(O)c1ccc(CN(Cc2ccccc2OC(F)(F)F)C(=O)c2cc(F)cc(F)c2)cn1 [Compound 199],10 to 100,1 to 10
O=C(O)c1ccc(CN(Cc2sc(Cl)nc2Cl)C(=O)c2cc(F)cc(F)c2)cn1 [Compound 200],10 to 100,0.1 to 1
O=C(O)c1ccc(CN(Cc2ccnc(Cl)c2Cl)C(=O)c2cc(F)cc(F)c2)cn1 [Compound 201],1 to 10,< 0.1
O=C(O)c1ccc(CN(Cc2cncc(Cl)c2Cl)C(=O)c2cc(F)cc(F)c2)cn1 [Compound 202],1 to 10,< 0.1
O=C(O)c1ccc(CN(Cc2nccc(Cl)c2Cl)C(=O)c2cc(F)cc(F)c2)cn1 [Compound 203],1 to 10,< 0.1
O=C(O)c1ncc(CN(Cc2cccc(Cl)c2Cl)C(=O)c2cc(F)cc(F)c2)cc1Cl [Compound 204],1 to 10,0.1 to 1
Cc1cc(C(=O)O)ncc1CN(Cc1cccc(Cl)c1Cl)C(=O)c1cc(F)cc(F)c1 [Compound 205],< 1,< 0.1
O=C(O)c1cc(CO)c(CN(Cc2cccc(Cl)c2Cl)C(=O)c2cc(F)cc(F)c2)cn1 [Compound 206],10 to 100,< 0.1
O=C(O)c1ncc(CN(Cc2ccccc2Cl)C(=O)c2cc(F)cc(F)c2)cn1 [Compound 207],10 to 100,0.1 to 1
COc1cc(C(=O)O)ncc1CN(Cc1cccc(Cl)c1Cl)C(=O)c1cc(F)cc(F)c1 [Compound 208],< 1,< 0.1
CN(C)c1cc(C(=O)O)ncc1CN(Cc1cccc(Cl)c1Cl)C(=O)c1cc(F)cc(F)c1 [Compound 209],10 to 100,< 0.1
COc1nc(C(=O)O)ccc1CN(Cc1cccc(Cl)c1Cl)C(=O)c1cc(F)cc(F)c1 [Compound 210],10 to 100,1 to 10
CC(C)(C)OC(=O)Nc1cncc(CN(Cc2cccc(Cl)c2Cl)C(=O)c2cc(F)cc(F)c2)c1 [Compound 212],1 to 10,0.1 to 1
"COc1cccc(CN(Cc2ccc(NC(C)=O)nc2)C(=O)c2cccc(F)c2)c1Cl [Compound 213, N-((6-acetamidopyridin-3-yl)methyl)-N-(2-chloro-3-methoxybenzyl)-3-fluorobenzamide]",> 100,> 10
CC(=O)Nc1ccc(CN(Cc2cccc(Cl)c2Cl)C(=O)c2cccc(F)c2)cn1 [Compound 214],> 100,1 to 10
COC(=O)C[C@@H](c1ccc(Cl)cc1Cl)N(Cc1cccnc1)C(=O)c1cc(F)cc(F)c1 [Compound 215],10 to 100,1 to 10
COC(=O)C[C@H](c1ccc(Cl)cc1Cl)N(Cc1cccnc1)C(=O)c1cc(F)cc(F)c1 [Compound 216],10 to 100,1 to 10
NC(=O)Cc1ccc(CN(Cc2ccc(Cl)cc2Cl)C(=O)c2cc(F)cc(F)c2)cn1 [Compound 217],> 100,0.1 to 1
O=C(c1cc(F)cc(F)c1)N(Cc1ccc(CCO)nc1)Cc1ccc(Cl)cc1Cl [Compound 218],10 to 100,0.1 to 1

SMILES,EC50 [1] [µM],EC50 (full length human TREX1) [µM]
Cc1cc(-c2ccc(CN(Cc3ccccc3Cl)C(=O)c3cc(F)cc(F)c3)cn2)[nH]n1 [Compound 219],10 to 100,1 to 10
O=C(c1cc(F)cc(F)c1)N(Cc1cccnc1)[C@H](c1cn[nH]c1)c1ccc(Cl)cc1Cl [Compound 220],10 to 100,0.1 to 1
O=C(c1cc(F)cc(F)c1)N(Cc1ccc(-c2cc(=O)[nH][nH]2)nc1)Cc1ccccc1Cl [Compound 221],10 to 100,0.1 to 1
O=C(c1cc(F)cc(F)c1)N(Cc1cccnc1)[C@@H](c1cn[nH]c1)c1ccc(Cl)cc1Cl [Compound 222],10 to 100,1 to 10
O=C(c1cc(F)cc(F)c1)N(Cc1ccc(-c2cc(C(F)(F)F)n[nH]2)nc1)Cc1ccccc1Cl [Compound 223],> 100,> 10
COc1cccc([C@H](C)N(Cc2ccc(-c3ccn[nH]3)nc2)C(=O)c2cc(F)cc(F)c2)c1Cl [Compound 224],10 to 100,1 to 10
COc1cccc([C@@H](C)N(Cc2ccc(-c3ccn[nH]3)nc2)C(=O)c2cc(F)cc(F)c2)c1Cl [Compound 225],10 to 100,0.1 to 1
CC[C@H](c1ccc(OC)c(OC)c1Cl)N(Cc1ccc(C(=O)O)nc1)C(=O)c1cc(F)cc(F)c1 [Compound 226],1 to 10,< 0.1
CC[C@@H](c1ccc(OC)c(OC)c1Cl)N(Cc1ccc(C(=O)O)nc1)C(=O)c1cc(F)cc(F)c1 [Compound 227],1 to 10,< 0.1
CCOc1cccc([C@@H](CC)N(Cc2ccc(C(=O)O)nc2)C(=O)c2cc(F)cc(F)c2)c1Cl [Compound 228],1 to 10,< 0.1
CCOc1cccc([C@H](CC)N(Cc2ccc(C(=O)O)nc2)C(=O)c2cc(F)cc(F)c2)c1Cl [Compound 229],1 to 10,< 0.1
CC[C@@H](c1ccc2c(c1Cl)OCO2)N(Cc1ccc(C(=O)O)nc1)C(=O)c1cc(F)cc(F)c1 [Compound 230],1 to 10,< 0.1
CC[C@H](c1cccc(OC2COC2)c1Cl)N(Cc1ccc(C(=O)O)nc1)C(=O)c1cc(F)cc(F)c1 [Compound 231],1 to 10,0.1 to 1
CC[C@@H](c1cccc(OC2COC2)c1Cl)N(Cc1ccc(C(=O)O)nc1)C(=O)c1cc(F)cc(F)c1 [Compound 232],10 to 100,< 0.1
CC[C@H](c1ccc2c(c1Cl)OCO2)N(Cc1ccc(C(=O)O)nc1)C(=O)c1cc(F)cc(F)c1 [Compound 233],1 to 10,< 0.1
N#CC[C@@H](c1cccc(Cl)c1Cl)N(Cc1cccnc1)C(=O)c1cc(F)cc(F)c1 [Compound 234],10 to 100,1 to 10
N#CC[C@H](c1cccc(Cl)c1Cl)N(Cc1cccnc1)C(=O)c1cc(F)cc(F)c1 [Compound 235],1 to 10,< 0.1
CC[C@@H](c1cccc(Cl)c1Cl)N(Cc1cnc(C(=O)O)c(N)c1)C(=O)c1cc(F)cc(F)c1 [Compound 236],< 1,< 0.1
NCC[C@@H](c1cccc(Cl)c1Cl)N(Cc1cccnc1)C(=O)c1cc(F)cc(F)c1 [Compound 237],10 to 100,> 10
NCC[C@H](c1cccc(Cl)c1Cl)N(Cc1cccnc1)C(=O)c1cc(F)cc(F)c1 [Compound 238],10 to 100,> 10
CC[C@H](c1cccc(Cl)c1Cl)N(Cc1cnc(C(=O)O)c(N)c1)C(=O)c1cc(F)cc(F)c1 [Compound 239],1 to 10,< 0.1
CNc1cc(CN(Cc2cccc(Cl)c2Cl)C(=O)c2cc(F)cc(F)c2)cnc1C(=O)O [Compound 240],10 to 100,< 0.1
COC(=O)CC[C@H](c1ccccc1Cl)N(Cc1cccnc1)C(=O)c1cc(F)cc(F)c1 [Compound 241],10 to 100,1 to 10
COC(=O)CC[C@@H](c1ccccc1Cl)N(Cc1cccnc1)C(=O)c1cc(F)cc(F)c1 [Compound 242],10 to 100,< 0.1
CN(C)c1cc(CN(Cc2cccc(Cl)c2Cl)C(=O)c2cc(F)cc(F)c2)cnc1C(=O)O [Compound 243],10 to 100,1 to 10
